Paper PMC9666555, “Genuine selective caspase-2 inhibition with new irreversible small peptidomimetics” (Cell Death & Disease, 2022)
Several values for one entry are separate records, joined by “and”; a condition that tells them apart may be missing. Identical values can stand only once. Non-standard residues stand in square brackets, D forms with d. Residues, ends and D or L forms follow the SMILES beside them. ξ: configuration not given here. *: point of attachment. ξTHIQ1CO(6-Me) = Cc1ccc2c(c1)CCNC2C(=O)O; X1 = O=C(O)CC(N*)C(=O)COc1c(F)cccc1F; Quinaldoyl = O=C(c1ccc2ccccc2n1)*

What was measured:
recombinant human Casp2 = target: T1, recombinant human Casp2 (Homo sapiens, UniProt P42575); assay: Enzyme mechanistic studies (Ki, k3, k3/KI), Caspase-2; assay type: biochemical
T1 sequence (P42575 170-325 limits assumed): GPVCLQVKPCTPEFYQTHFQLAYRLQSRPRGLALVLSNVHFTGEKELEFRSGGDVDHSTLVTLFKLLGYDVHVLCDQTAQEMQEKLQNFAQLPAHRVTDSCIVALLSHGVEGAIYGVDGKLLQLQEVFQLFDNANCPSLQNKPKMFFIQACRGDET
T1 sequence (P42575 348-452 limits assumed): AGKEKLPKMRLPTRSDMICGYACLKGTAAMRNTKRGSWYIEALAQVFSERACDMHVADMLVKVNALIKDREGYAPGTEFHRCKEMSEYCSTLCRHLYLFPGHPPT
Procedure: (§1) For reversible inhibitors, the mechanisms of inhibition were determined by varying substrate and inhibitor concentrations and using Lineweaver−Burk representations to determine the inhibition constants Ki of competitive inhibitors (Ki = [E][I]/[EI]). For suicide inhibitors, inactivation can be represented by the minimum kinetic scheme (Eq. 2), where E and I are the free forms of enzyme and inhibitor, E * I a kinetic chimera of the Michaelis complex and E − I the covalent complex (inactivated enzyme).2 E+I⇄KIE*I→k3E−I
(§2) KI and k3 are the kinetic constants characterizing the inactivation process and the k3/KI ratio is an index of the inhibitory potency. The first-order rate constant, k3, and the apparent dissociation constant, KI, were determined for Caspase-2 and -3 using the progress curve method. Briefly, the enzyme activities were measured continuously for 120 min. To determine the kinetic parameters, progress curves were obtained at several inhibition concentrations using fixed substrate concentration. The product released for each inhibitor concentration was plotted versus the time following Eq. 3 where the constant π depended on [I]’, a modified inhibitor concentration due to substrate competition, according to Eq. 4. [I]’ is defined by Eq. 5, where KM was Michaelis constant for the enzymatic hydrolysis of the appropriate fluorogenic substrate. The ratio k3/KI was obtained by fitting the experimental data to the equations (F.U., fluorescence unit):3 F.U.=∫0tvidt+F.U0−vo×e^−π×t/π+F.U.0 4 π=k3×[I]^′/KI+[I]^′ 5 [I]^′=[I]/1+S/KM
Linear and nonlinear regression fits of the experimental data to the equations were performed with KaleidaGraph software. The experimental conditions were [Caspase-2]0 = 0.2 nM, [Ac-VDVAD-AMC]0 = 25 µM and [Caspase-3]0 = 0.1 nM, [Ac-DEVD-AMC]0 = 10 µM; [I]0 = 0–100 µM.

recombinant human Casp3 = target: T2, recombinant human Casp3 (Homo sapiens, UniProt P42574); assay: Enzyme mechanistic studies (Ki, k3, k3/KI), Caspase-3; assay type: biochemical; conditions: irreversible inhibitors, progress curve method
T2 sequence (P42574 29-175 limits assumed): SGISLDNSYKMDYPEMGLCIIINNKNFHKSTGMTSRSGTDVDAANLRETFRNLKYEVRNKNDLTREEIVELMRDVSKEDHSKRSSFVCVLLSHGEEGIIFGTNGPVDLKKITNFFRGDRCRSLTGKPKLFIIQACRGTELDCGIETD
T2 sequence (P42574 176-277 limits assumed): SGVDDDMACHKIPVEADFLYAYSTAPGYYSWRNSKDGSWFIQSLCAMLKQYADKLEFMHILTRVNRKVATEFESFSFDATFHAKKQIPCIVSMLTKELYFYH
Procedure: as §1, §2
Linear and nonlinear regression fits of the experimental data to the equations were performed with KaleidaGraph software.

[1] = target: T3, human active recombinant caspase-2 (Homo sapiens, UniProt P42575); assay: In vitro caspase activity and inhibition assay (IC50), Caspase-2; assay type: biochemical
T3 sequence (P42575 170-325 limits assumed): T1 sequence (P42575 170-325 limits assumed)
T3 sequence (P42575 348-452 limits assumed): T1 sequence (P42575 348-452 limits assumed)
Procedure: Stock solutions were stored at −80 °C.

[2] = tested on: cell lines or primary neurons in culture; assay: Toxicity of inhibitor added to cultured cells; assay type: cell-based; conditions: at least up to 100 µM; not shown
Cathepsin-B = Cathepsin-B (Homo sapiens, UniProt P07858); assay: Non-caspase enzyme assay, Cathepsin-B; assay type: biochemical; conditions: concentrations up to 10 µM
Procedure: (§3) Stock solutions were stored at −80 °C. […]
(§4) Non-caspase enzyme assays
(§5) The human pro- kallikrein-1 (pro-hK1) was activated in a buffer containing: Tris-HCl 50 mM, CaCl2 10 mM, NaCl 150 mM, Brij-35 0,05% pH 7,5. Human pro-kallikrein-6 and -8 (pro-hK6 and 8 were activated using Lysyl-endopeptidase (Wako- BioProducts®) at a 1/500 weight ratio, in a buffer containing 50 mM Tris and 0,05% Brij-35 (pH 8). Kinetics using non-caspase enzymes for selectivity studies were done according to the following conditions.
(§6) Enzymes Substrates Buffers
(§7) Cathepsine B (0.2 nM) z-RR-AMC 20 µM Acétate de sodium 0,1 M; EDTA 1mM ; […]
(§8) Cathepsine L (1.2 nM) RLR-AMC 25 µM Acétate de sodium 0,1 M; EDTA 1mM ; […]
(§9) Cathepsine D (0.1 nM) Mca-Gly-Ly s-Pro-Ile-Leu-Phe-Phe- Citrate de Sodium 0,1 M; EDTA 2 mM ; Arg-Leu-Lys(Dnp)-D-Arg-NH2 10 µM Brij-35 0,01%; pH 4 hK1 (4 nM) Boc-VPR-AMC 100µM Tris 50mM; Citrate 1M; Brij-35 0.05%; pH7 hK6 (2 nM ) Boc-QAR -AMC 100 µM Tris 50mM; Citrate 1M; Brij-35 0.05%; pH7 hK8 (1 nM) Boc-VPR-AMC 100µM Tris 50mM; Citrate 1M; Brij-35 0.05%; pH7
(§10) Thrombine (10 mU/mL) Boc-VPR-AMC 100µM Tris 50mM; Citrate 1M; Brij-35 0.05%; pH7 Plasmine (4 nM ) Boc-QAR -AMC 100µM Tris 50mM; Citrate 1M; Brij-35 0.05%; pH7 Trypsine (0.1 nM) Boc-QAR -AMC 100µM Tris 50mM; Citrate 1M; Brij-35 0.05%; pH7

[3] = tested on: Casp2-S1P-SREBP2 activation pathway in HEK 293 cells; assay: Casp2-dependent S1P cleavage and SREBP2 activation in transfected HEK 293 cells (WB); conditions: 10 µM, 16 h
Procedure: To test SREBP processing, HEK 293 (ATCC® CRL-1573) cells were plated at a density of 0.5 × 10^5 per well (6-well plates). The next day, 1 μg of each cDNAs were transfected using lipofectamine 3000 (Thermo Fisher Scientific, MA) according to the manufacturer’s instruction. cDNAs used were empty vector (EV), Casp2-HA, PIDD-Flag, RAIDD-His, Myc-S1P, and V5-SREBP2. After 4 h, cells were incubated in DMEM/F12 medium supplemented with indicated Casp2 inhibitors (10 μM) for 16 h. Whole-cell lysates were prepared in lysate buffer (150 mM Tris-HCl, pH 7.4, 10% sodium-deoxycholate, 100 mM NaCl, 100 mM EDTA, 100 mM PMSF, 200 mM NaF, 100 mM Na3VO4, and a mixture of protease inhibitors). […] Equal quantities of proteins were subjected to immunoblot (WB) analysis with anti-Flag (#F7425 Sigma-Aldrich), anti-HA (#1867431, Roche), anti-Casp2 (#ALX-804-356, 11B4, Enzo Life Sciences), anti-V5 monoclonal antibody (#13202, Cell Signaling Technology), anti-Casp3 (#9661, #9662, #9664, Cell Signaling Technologies), and anti-HSP90 (#sc-101494, Santa Cruz Technologies).
HEK 293 cells were transfected with indicated plasmids in order to overexpress SREBP2, S1P, RAIDD, PIDD1, and Casp-2. […] HEK 293 cells were transfected with the indicated plasmids. […] Then, whole cell extracts (WCL) were prepared and subjected to WB analysis to detect Casp2 (through HA tag), RAIDD (through 6HIS tag), and PIDD1, PIDD1-C, PIDD1-CC (through Flag tag).

Trypsin = assay: Non-caspase enzyme assay, Trypsin; assay type: biochemical, human; conditions: concentrations up to 10 µM
Procedure: as §3, §4, §5, §6, §7, §8, §9, §10

Plasmin = target: T4, Plasmin (Homo sapiens, UniProt P00747); assay: Non-caspase enzyme assay, Plasmin; assay type: biochemical; conditions: concentrations up to 10 µM
T4 construct: The human active Plasmin, Thrombin, and Trypsin; purchased Sigma-Aldrich
T4 sequence (P00747 581-810 limits assumed): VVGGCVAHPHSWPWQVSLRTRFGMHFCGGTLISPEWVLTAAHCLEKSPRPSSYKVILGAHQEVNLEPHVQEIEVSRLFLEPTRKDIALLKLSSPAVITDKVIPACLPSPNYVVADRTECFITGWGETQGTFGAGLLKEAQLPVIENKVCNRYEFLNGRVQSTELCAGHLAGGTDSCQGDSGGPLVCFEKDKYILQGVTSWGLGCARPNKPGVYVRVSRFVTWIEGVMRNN
T4 sequence (P00747 97-580 partner limits assumed): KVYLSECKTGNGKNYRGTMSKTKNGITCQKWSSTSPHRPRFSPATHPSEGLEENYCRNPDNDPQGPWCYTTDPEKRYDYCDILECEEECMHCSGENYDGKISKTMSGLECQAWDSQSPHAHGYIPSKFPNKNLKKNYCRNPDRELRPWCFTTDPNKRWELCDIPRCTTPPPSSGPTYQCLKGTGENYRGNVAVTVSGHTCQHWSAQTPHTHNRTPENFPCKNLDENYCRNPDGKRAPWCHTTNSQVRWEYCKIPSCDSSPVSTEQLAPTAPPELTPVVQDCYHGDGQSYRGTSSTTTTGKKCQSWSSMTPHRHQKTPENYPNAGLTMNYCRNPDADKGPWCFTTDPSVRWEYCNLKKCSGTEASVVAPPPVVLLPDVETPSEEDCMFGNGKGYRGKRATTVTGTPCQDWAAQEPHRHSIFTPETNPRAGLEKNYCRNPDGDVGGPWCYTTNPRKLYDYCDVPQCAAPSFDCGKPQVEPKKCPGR
Procedure: as §3, §4, §5, §6, §7, §8, §9, §10

[4] = irreversible inhibitors, progress curve method

Compound | selectivity: inactivation rate (k3/Ki) on Casp2 as compared to Casp3 (recombinant human Casp2) | Casp2 k3 (recombinant human Casp2; [4]) | Casp2 k3/KI (recombinant human Casp2; [4]) | KI (inactivation) (recombinant human Casp2; [4]) [nM] | Casp3 k3 (recombinant human Casp3) | Casp3 k3/KI (recombinant human Casp3) | KI (inactivation) (recombinant human Casp3) [nM] | IC50 [1] [nM] | toxicity [2] | Ki (recombinant human Casp2; irreversible inhibitors, progress curve method, read-out: Casp2 KI) [nM] | effect on Cathepsin-B (Cathepsin-B) | Ki (recombinant human Casp3; read-out: Casp3 KI) [nM] | S1P cleavage [3] | SREBP2 activation [3] | impact on RAIDD, PIDD1, and Casp2 expression [3] | effect on Trypsin (Trypsin) | effect on Plasmin (Plasmin)
Cc1ccc2c(c1)CCN(C(=O)[C@@H](NC(=O)[C@H](CC(=O)O)NC(=O)[C@@H](NC(=O)c1ccc3ccccc3n1)C(C)C)C(C)C)C2C(=O)NC(CC(=O)O)C(=O)COc1c(F)cccc1F (stereo partly drawn) [LJ2, Quinolin-2-carbonyl-VDV-(methyl-isoquinolyl)-D-CH2-O(2,6F2)Ph] (Quinaldoyl-VDV[ξTHIQ1CO(6-Me)]-X1) | 25 times and ~ 25 times | 4,91 ms^−1 | ~ 1,322,875 M^−1 s^−1 and 1 322 875 M^−1 s^−1 and ~ 1,300,000 M^−1 s^−1 | 3.68 | 2,37 ms^−1 | 51,992 M^−1 s^−1 and 51 992 M^−1 s^−1 | 47 | 0.37 ± 0.01 | devoid of any toxicity |  |  |  |  |  |  |  | 
CC(C)[C@H](NC(=O)c1ccc2ccccc2n1)C(=O)N[C@@H](CC(=O)O)C(=O)N[C@H](C(=O)N1CC[C@H](CC(C)(C)C)[C@@H]1C(=O)NC(CC(=O)O)C(=O)COc1c(F)cccc1F)C(C)C (stereo partly shown) [LJ3a] | ~1000 times and 946 times | 5 ± 7 × 10^−4 ms^−1 | 1,708,996 M^−1 s^−1 |  | 0.7 ± 9 × 10^−5 ms^−1 | 1807 M⁻¹ s⁻¹ |  |  |  | 2.8 ± 0.8 | very limited or no effect | 400 ± 93.3 | abolished | abolished | no significant impact | very limited or no effect | very limited or no effect
